According to patent US7417062B2, “Substituted arylamides” (ChemoCentryx, Inc., priority 2004, dated 2008):

Molecular target: T1, CCXCKR2 receptor (Homo sapiens, UniProt P25106)
T1 construct: host or cells: MCF-7 (endogenous) and/or MDA-MB-435S transfected with hRDC1 in pcDNA3.1(+)
Assay: Displacement of 125I-labeled SDF-1 from the CCXCKR2 receptor (radioligand binding, determination of IC50 values)
Settings: MCF-7 and/or MDA-MB-435S cells expressing CCXCKR2; 125I SDF-1; 3 hr at 4° C.; read-out: Activity (ability to displace 125I SDF-1 from CCXCKR2)
In short: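 Whole-cell filtration binding on MCF-7 and/or MDA-MB-435S cells stably transfected with human CCXCKR2, with compounds at multiple concentrations competing with 125I-SDF-1. Incubation was 3 hr at 4° C in HEPES buffer (CaCl2, MgCl2, 0.2% BSA, pH 7.1). Bound radioactivity was collected on PEI-treated GF/B filters and counted by scintillation to give IC50.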

T1 sequence (P25106 whole entry): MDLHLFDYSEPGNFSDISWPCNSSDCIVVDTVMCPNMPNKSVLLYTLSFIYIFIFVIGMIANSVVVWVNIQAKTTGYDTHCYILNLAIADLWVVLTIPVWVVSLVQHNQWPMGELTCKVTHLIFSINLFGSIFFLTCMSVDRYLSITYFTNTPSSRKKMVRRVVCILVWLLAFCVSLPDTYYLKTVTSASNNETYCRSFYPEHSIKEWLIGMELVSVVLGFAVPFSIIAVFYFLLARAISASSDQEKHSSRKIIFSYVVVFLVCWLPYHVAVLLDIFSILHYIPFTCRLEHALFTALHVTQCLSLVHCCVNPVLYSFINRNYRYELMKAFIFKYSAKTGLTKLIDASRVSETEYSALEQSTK

Row | SMILES | IC50
1 | COc1ccc(C(=O)N(Cc2nc3ccccc3s2)C[C@@H]2CCCN2CC2CCCCC2)cc1OC [Example 27, N-Benzothiazol-2-yl methyl-(S)—N-(1-cyclohexylmethyl-pyrrolidin-2-ylmethyl)-3,4-dimethoxy-benzamide] | < 500 nM
2 | COc1cc(C(=O)N(CCCN2CCCCC2C)c2ccc3ccccc3c2)cc(OC)c1OC (stereo not shown) [Example 20, 3,4,5-Trimethoxy-N-[3-(2-methyl-piperidin-1-yl)-propyl]-N-naphthalen-2-yl-benzamide] | < 2000 nM
3 | COc1cc(C(=O)N(Cc2cc3ccccc3o2)C[C@@H]2CCCN2CC2CCCCC2)cc(OC)c1OC [Example 4, N-Benzofuran-2-ylmethyl-N—(S)-(1-cyclohexylmethyl-pyrrolidin-2-ylmethyl)-3,4,5-trimethoxy-benzamide] | < 500 nM

Other lines, results leading:

Row | IC50 | SMILES
4 | < 500 nM | COc1cc(C(=O)N(C[C@@H]2CCCN2CC2CC2)c2cccc(-c3ccccc3)c2)ccc1OC(F)F [Example 32, N-Biphenyl-3-yl-(S)—N-(1-cyclopropylmethyl-pyrrolidin-2-ylmethyl)-4-difluoromethoxy-3-methoxy-benzamide]
5 | < 500 nM | COc1cc(C(=O)N(Cc2nc(-c3ccccc3)cs2)C[C@@H]2C[C@@H]3CCCC[C@@H]3N2)cc2c1OC(C)(C)O2 [Example 51, 7-Methoxy-2,2-dimethyl-benzo[1,3]dioxole-5-carboxylic acid (octahydro-indol-2-ylmethyl)-(4-phenyl-thiazol-2-ylmethyl)-amide]
6 | < 10000 nM | COc1ccc(C(=O)N(C[C@@H]2CCCN2CC2CCCCC2)c2cccc(-n3ccnn3)c2)cc1OC [Example 76, N-((S)-1-Cyclohexylmethyl-pyrrolidin-2-ylmethyl)-3,4-dimethoxy-N-(3-[1,2,3]triazol-1-yl-phenyl)-benzamide]
7 | < 500 nM | COc1cc(C(=O)N(C[C@@H]2CCCN2)c2cccc(-c3ccccc3)c2)ccc1OC(F)F [Example 31, N-Biphenyl-3-yl-4-difluoromethoxy-3-methoxy-(S)—N-pyrrolidin-2-ylmethyl-benzamide]
